Test results as given in ChEMBL document CHEMBL3112514, “Insights into antioxidant activity of 1-adamantylthiopyridine analogs using multiple linear regression” (Eur J Med Chem, 2014).

What was measured:
[1] = Antioxidant activity assessed as inhibition of photoreduction of nitro blue tetrazolium after 7 mins by SOD activity assay; assay type: functional; set-up: concentration or dose not given beside the values
[2] = test system: Radical scavenging activity; assay: Antioxidant activity assessed as DPPH radical scavenging activity; assay type: functional; set-up: concentration or dose not given beside the values

Row | SMILES | inhibition [1] [%] | Activity [2] [%]
1 | Oc1ccc(SC23CC4CC(CC(C4)C2)C3)nc1 | 45.5 | 0.3
2 | CC(=O)N(C(C)=O)c1cccnc1SC12CC3CC(CC(C3)C1)C2 |  | 17.7
3 | Brc1cncc(SC23CC4CC(CC(C4)C2)C3)c1 | 53.3 | 17.1
4 | CC(=O)Oc1cccnc1SC12CC3CC(CC(C3)C1)C2 | 16.8 | 7.03
5 | CCOc1cccnc1SC12CC3CC(CC(C3)C1)C2 | 31.8 | 14.2
6 | O=C(O)c1cccnc1SC12CC3CC(CC(C3)C1)C2 | 15.4 | 33.2
7 | Brc1cccnc1SC12CC3CC(CC(C3)C1)C2 | 17.2 | 21.1
8 | N#Cc1cccnc1SC12CC3CC(CC(C3)C1)C2 | 17.3 | 0.3
9 | NC(=O)c1cccnc1SC12CC3CC(CC(C3)C1)C2 | 15.4 | 0.57
